Like-named read-outs stand apart in the source and are kept apart here.
System: HCV 1b genotype
Test: HCV Replicon assay (HCV-neo replicon cells, wild-type)
Type: cell-based
Conditions: HCV 1b genotype replicon
Experimental: An HCV Replicon assay was utilized in the present disclosure, and was prepared, conducted and validated as described in commonly owned PCT/US2006/022197 and in O'Boyle et. al. Antimicrob Agents Chemother. 2005 Apr;49(4):1346-53. Assay methods incorporating luciferase reporters have also been used as described (Apath.com).
HCV-neo replicon cells and replicon cells containing mutations in the NS5A region were used to test the currently described family of compounds. The compounds were determined to have more than 10-fold less inhibitory activity on cells containing mutations than wild-type cells. Thus, the compounds of the present disclosure can be effective in inhibiting the function of the HCV NS5A protein and are understood to be as effective in combinations as previously described in application PCT/US2006/022197 and commonly owned WO/O4014852. Further, the compounds of the present disclosure can be effective against the HCV 1b genotype. It should also be understood that the compounds of the present disclosure can inhibit multiple genotypes of HCV. […] In one embodiment, compounds of the present disclosure are inhibitory versus 1a, 1b, 2a, 2b, 3a, 4a, and 5a genotypes.

[1] = Hepatitis C virus, class symbols, read-out: EC50 Range

Which EC50 [1] does the source give for `O=C(Nc1ccc(C#Cc2ccc3nc([C@@H]4CCCN4C(=O)Cc4ccccc4)[nH]c3c2)cc1)[C@@H]1CCCN1C(=O)Cc1ccccc1` [M.9, (S)-1-(2-phenylacetyl)-N-(4-((2-((S)-1-(2-phenylacetyl)pyrrolidin-2-yl)-1H-benzo [d]imidazol-6-yl)ethynyl)phenyl)pyrrolidine-2-carboxamide] here?
Its EC50 is 4.57 to 99 nM.

Which results are given for `CC(=O)N1CCC[C@H]1C(=O)Nc1ccc(CCc2ccc3nc([C@@H]4CCCN4C(=O)Cc4ccccc4)[nH]c3c2)cc1` [M.10, (S)-1-acetyl-N-(4-(2-(2-((S)-1-(2-phenylacetyl)pyrrolidin-2-yl)-1H-benzo[d]imidazol-6-yl)ethyl)phenyl)pyrrolidine-2-carboxamide]?
EC50 [1]: 100 to 999 nM; EC50 (Hepatitis C virus, values in nM, read-out: EC50): 202 nM

For `O=C(Nc1ccc(CCc2ccc3nc([C@@H]4CCCN4C(=O)Cc4ccccc4)[nH]c3c2)cc1)[C@@H]1CCCN1C(=O)Cc1ccccc1` [M.11, (S)-1-(2-phenylacetyl)-N-(4-(2-(2-((S)-1-(2-phenylacetyl)pyrrolidin-2-yl)-1H-benzo [d]imidazol-6-yl)ethyl)phenyl)pyrrolidine-2-carboxamide], which EC50 [1] is on record?
The EC50 was 4.57 to 99 nM.

How did the EC50 (class symbols, read-out: EC50 Range) turn out when “(2R)-2-(dimethylamino)-N-(3-(5-(2-((2S)-1-((2R)-2-(dimethylamino)-2-phenylacetyl)-2-pyrrolidinyl)-1H-benzimidazol-5-yl)-1,3-oxazol-2-yl)phenyl)-2-phenylacetamide [J.48b]” was run?
The EC50 was 4.57 to 99 nM.
